From patent publication US7842324B2 (Senomyx, Inc., priority 2005, dated 2010) come the findings set out here.

For the first assay, the target named is T1, hT1R2/hT1R3 sweet receptor expressed in HEK293 cell line (Homo sapiens, UniProt Q7RTX0+Q8TE23).
T1 construct: expressed in transfected cells; host or cells: HEK293 derivative stably expressing Gα15 and hT1R2/hT1R3, clone S-9
T1 sequence (Q8TE23 20-839): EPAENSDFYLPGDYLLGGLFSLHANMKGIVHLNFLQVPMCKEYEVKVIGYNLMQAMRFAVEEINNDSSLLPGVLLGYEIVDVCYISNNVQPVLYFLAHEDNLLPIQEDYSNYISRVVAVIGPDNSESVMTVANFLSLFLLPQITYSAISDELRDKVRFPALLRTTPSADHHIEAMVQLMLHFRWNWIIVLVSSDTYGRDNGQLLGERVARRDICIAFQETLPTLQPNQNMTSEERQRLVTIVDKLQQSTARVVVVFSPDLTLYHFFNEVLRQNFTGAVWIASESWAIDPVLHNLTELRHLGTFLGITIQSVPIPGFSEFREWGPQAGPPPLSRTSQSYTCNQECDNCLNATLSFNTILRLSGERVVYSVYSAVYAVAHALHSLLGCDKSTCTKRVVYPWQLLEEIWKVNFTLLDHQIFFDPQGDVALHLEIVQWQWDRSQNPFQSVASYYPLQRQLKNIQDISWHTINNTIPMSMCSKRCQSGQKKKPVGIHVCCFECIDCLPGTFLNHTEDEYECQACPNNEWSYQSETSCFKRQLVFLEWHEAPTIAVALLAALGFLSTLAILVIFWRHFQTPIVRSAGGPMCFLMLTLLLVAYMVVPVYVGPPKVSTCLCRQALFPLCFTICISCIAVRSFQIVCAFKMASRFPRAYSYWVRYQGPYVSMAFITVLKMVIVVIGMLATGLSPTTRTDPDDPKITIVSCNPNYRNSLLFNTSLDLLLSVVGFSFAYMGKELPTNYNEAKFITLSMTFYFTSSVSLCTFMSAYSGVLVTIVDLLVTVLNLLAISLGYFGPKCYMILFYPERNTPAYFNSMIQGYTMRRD
T1 sequence (Q7RTX0 21-852): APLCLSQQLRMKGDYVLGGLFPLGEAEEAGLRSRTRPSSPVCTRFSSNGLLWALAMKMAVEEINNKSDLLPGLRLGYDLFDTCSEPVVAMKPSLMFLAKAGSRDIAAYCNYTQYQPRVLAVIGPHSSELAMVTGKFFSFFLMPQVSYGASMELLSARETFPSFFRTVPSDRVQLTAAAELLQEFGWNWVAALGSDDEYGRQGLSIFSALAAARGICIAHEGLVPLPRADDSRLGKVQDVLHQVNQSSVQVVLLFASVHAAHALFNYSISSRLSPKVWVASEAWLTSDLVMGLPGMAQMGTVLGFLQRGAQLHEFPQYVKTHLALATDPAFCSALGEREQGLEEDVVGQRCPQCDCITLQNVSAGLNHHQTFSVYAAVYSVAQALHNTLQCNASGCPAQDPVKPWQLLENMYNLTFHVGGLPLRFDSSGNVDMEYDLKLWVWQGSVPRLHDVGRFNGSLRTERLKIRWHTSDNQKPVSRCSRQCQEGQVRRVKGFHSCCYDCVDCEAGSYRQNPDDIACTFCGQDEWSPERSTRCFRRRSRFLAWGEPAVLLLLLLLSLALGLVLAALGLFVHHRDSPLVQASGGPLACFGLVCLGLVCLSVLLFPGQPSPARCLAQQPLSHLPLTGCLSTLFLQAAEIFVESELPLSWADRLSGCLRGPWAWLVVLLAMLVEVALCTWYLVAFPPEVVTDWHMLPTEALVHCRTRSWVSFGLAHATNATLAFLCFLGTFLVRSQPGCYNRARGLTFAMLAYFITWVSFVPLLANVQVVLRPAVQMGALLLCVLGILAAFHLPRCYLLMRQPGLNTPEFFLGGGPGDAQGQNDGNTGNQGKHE
The assay can be described thus: In vitro hT1R2/hT1R3-HEK293 taste receptor activation assay (FLIPR). The class given is cell-based. The settings on record: Table A; read-out: SWEET EC50. As to the method:
An HEK293 cell line derivative (Chandrashekar et al., Cell (2000) 100:703-711) that stably expresses Gα15 and hT1R2/hT1R3 (Li et al., Proc Natl Acad Sci USA (2002) 99:4692-4696), see also PCT Publication No. WO 03/001876 A2) was used to identify compounds with sweet taste enhancing properties.
Compounds covered in this document were initially selected based on their activity on the hT1R2/hT1R3-HEK293-Gα15 cell line (Li et al. vide supra). Activity was determined using an automated fluorometric imaging assay on a FLIPR instrument ([…], Molecular Devices, Sunnyvale, Calif.) (designated FLIPR assay). Cells from one clone (designated S-9 cells) were seeded into 384-well plates (at approximately 50,000 cells per well) in a medium containing DMEM Low Glucose (Invitrogen, Carlsbad, Calif.), 10% dialyzed fetal bovine serum (Invitrogen, Carlsbad, Calif.), 100 Units/ml Penicillin G, and 100 μg/ml Streptomycin (Invitrogen, Carlsbad, Calif.) (Li et al. vide supra) see also PCT Publication No. WO 03/001876 A2). S-9 cells were grown for 24 hours at 37° C. S-9 cells were then loaded with the calcium dye Fluo-3AM (Molecular Probes, Eugene, Oreg.), 4 μM in a phosphate buffered saline (D-PBS) (Invitrogen, Carlsbad, Calif.), for 1 hour at room temperature. After replacement with 25 μl D-PBS, stimulation was performed in the FLIPR instrument and at room temperature by the addition of 25 μl D-PBS supplemented with different stimuli at concentrations corresponding to twice the desired final level. Receptor activity was quantified by determining the maximal fluorescence increases (using a 480 nm excitation and 535 nm emission) after normalization to basal fluorescence intensity measured before stimulation.
For dose-responses analysis, stimuli were presented in duplicates at 10 different concentrations ranging from 60 nM to 30 μM. Activities were normalized to the response obtained with 400 mM D-fructose, a concentration that elicits maximum receptor response. EC50s were determined using a non-linear regression algorithm (using a Senomyx, Inc. software), where the Hill slope, bottom asymptotes and top asymptotes were allow to vary. Identical results were obtained when analyzing the dose-response data using commercially available software for non-linear regression analysis such as GraphPad PRISM (San Diego, Calif.).
As for `CSc1ccccc1-c1ccc(C(C)(C)C(=O)NCC(C)C)cc1` [Compound A14], the EC50 amounted to 9 µM. On the same count and under the same terms, for `CC(C)(C(=O)N[C@@H](O)c1ccccc1)c1ccc(-c2cncc(C#N)c2)cc1` [Compound A28] the value was 2.06 µM; for `CC(C)[C@H](C)NC(=O)C(C)(C)c1ccc(-c2cncc(C#N)n2)cc1` [Compound A46], 0.31 µM. Same read-out and setting: for `CC(C)CNC(=O)C(C)(C)c1ccc(-c2cncnc2)cc1` [Compound A11] the value was 2.13 µM. Same read-out and setting: the figure for `COc1cccc(-c2ccc(C(C)C(=O)NCC(C)C)cc2)c1` (centres unmarked) [Compound A7] is 5.58 µM; for `CC(C)(C(=O)CCc1ccco1)c1ccc(-c2cncc(C#N)c2)cc1` [Compound A72] it is 0.18 µM; for `CC(C)(C(=O)NCC(O)c1ccccc1)c1ccc(-c2cncc(C#N)c2)cc1` (centres unmarked) [Compound A61] it is 1.17 µM. As to `CC(C)CNC(=O)C(C)(C)c1ccc(-c2cocc2/C=N/O)cc1` [Compound A71], the EC50 stood at 0.75 µM. Still for that read-out and setting: for `CCc1ccccc1-c1ccc(C(C)(C)C(=O)NCC(C)C)cc1` [Compound A13] the value was 7 µM; for `CC(C)(C(=O)NCC1CC1)c1ccc(-c2cncc(C#N)n2)cc1` [Compound A45], 0.27 µM; for `CC(C)NC(=O)C(C)(C)c1ccc(-c2cncc(C#N)c2)cc1` [Compound A22], 0.94 µM. Same read-out and setting: for `COCC(C)NC(=O)C(C)(C)c1ccc(-c2ccccc2)c(F)c1` (centres unmarked) [Compound A4] the value was 3.19 µM. For the compound `CC(C)(C(=O)NCc1ccoc1)c1ccc(-c2cncc(C#N)n2)cc1` [Compound A54], the EC50 is 0.59 µM.

Turning to `CC(C)CNC(=O)C(C)(C)c1ccc(-c2cccc(C(C)C)c2)cc1` [Compound A16], the EC50 was found to be 6 µM. Still for that read-out and setting: for `CC(C)CNC(=O)C(C)(C)c1ccc(-c2cccc3[nH]ccc23)cc1` [Compound A26] the value was 2.02 µM; for `CC(C)CNC(=O)C(C)(C)c1ccc(-c2cccc3c2COCOC3)cc1` [Compound A79], 0.67 µM; for `CC(C)(C(=O)NC1CCCCC1)c1ccc(-c2cncnc2)cc1` [Compound A89], 0.41 µM. In the case of `CC(C)NC(=O)C(C)(C)c1ccc(-c2cncc(C#N)n2)cc1` [Compound A55], the EC50 was 0.65 µM.

As to `CCC(CO)NC(=O)C(C)(C)c1ccc(-c2ccoc2)cc1` (centres unmarked) [Compound A77], the EC50 was 1.25 µM. Still for that read-out and setting: for `CC[C@@H](C)NC(=O)C(C)(C)c1ccc(-c2cncc(C#N)c2)cc1` [Compound A85] the value was 0.15 µM; for `CC(C)CNC(=O)C(C)(C)c1ccc(-c2cccc(S(C)(=O)=O)c2)cc1` [Compound A38], 1.49 µM; for `CCC(CC)NC(=O)C(C)(C)c1ccc(-c2cncc(C#N)n2)cc1` [Compound A40], 0.03 µM. Still for that read-out and setting: for `CC(C)CNC(=O)C(C)(C)c1ccc(-c2cc(CO)ccc2C=O)cc1` [Compound A92] the value was 0.63 µM; for `COCc1cccc(-c2ccc(C(C)(C)C(=O)NCC(C)C)nc2)c1` [Compound A30], 3.05 µM. As for `CC[C@@H](C)NC(=O)C(C)(C)c1ccc(-c2cncc(C#N)n2)cc1` [Compound A50], the EC50 is 0.37 µM.

On to `CC[C@@H](C)NC(=O)C(C)(C)c1ccc(-c2cncc(COC)c2)cc1` [Compound A58], for which the EC50 is 1.05 µM. On the same count and under the same terms, the figure for `CCCOc1cccc(-c2ccc(C(C)(C)C(=O)NCC(C)C)cc2)c1` [Compound A17] is 5.6 µM; for `CC(C)(C(=O)NC1CCCCC1)c1ccc(-c2cncc(C#N)c2)cc1` [Compound A86] it is 0.18 µM; for `CCC(COC)NC(=O)C(C)c1ccc(-c2ccccc2)c(F)c1` (centres unmarked) [Compound A12] it is 4.5 µM. `CC(C)(C(=O)NC1CC1)c1ccc(-c2cncc(C#N)n2)cc1` [Compound A47]: the EC50 worked out at 0.32 µM. On the same count and under the same terms, for `COc1ccc(-c2ccc(C(C)(C)C(=O)NCC(C)C)cc2)c(OC)c1` [Compound A19] the value was 7.1 µM; for `CC[C@@H](C)NC(=O)C(C)(C)c1ccc(-c2cccc(COC)c2)cc1` [Compound A53], 0.55 µM. The same measure, in the same setting: the figure for `CCCNC(=O)C(C)(C)c1ccc(-c2cncc(COC)c2)cc1` [Compound A29] is 2.91 µM.

Still in this assay, the particulars now being: read-out: EC50 for activation of a hT1R2/hT1R3 sweet receptor expressed in HEK293 cell line.
`Cc1cscc1-c1ccc(C(C)(C)C(=O)NCC(C)C)cc1O` [Compound 35, 2-(3-hydroxy-4-(4-methylthiophen-3-yl)phenyl)-N-isobutyl-2-methylpropanamide]: the EC50 came to 1.04 µM.

Take `CC[C@@H](CO)NC(=O)C(C)(C)c1ccc(-c2cncc(C#N)n2)cc1` [Compound 51, (S)-2-(4-(6-cyanopyrazin-2-yl)phenyl)-N-(1-hydroxybutan-2-yl)-2-methylpropanamide]: the EC50 was 1.03 µM.

For the compound `CC(C)[C@@H](C)NC(=O)C(C)(C)c1ccc(-c2cncnc2)cc1` [Compound 44, (R)-2-methyl-N-(3-methylbutan-2-yl)-2-(4-(pyrimidin-5-yl)phenyl)propanamide], the EC50 worked out at 0.65 µM. Same read-out and setting: for `CC(C)CNC(=O)C(C)(C)c1cc(-c2ccccc2)no1` [Compound 33, N-isobutyl-2-methyl-2-(3-phenylisoxazol-5-yl)propanamide] the value was 6.75 µM. The same measure, in the same setting: the figure for `CCC(CC)NC(=O)C(C)(C)c1ccc(-c2cncnc2)cc1` [Compound 52, 2-methyl-N-(pentan-3-yl)-2-(4-(pyrimidin-5-yl)phenyl)propanamide] is 0.38 µM.

Take `COc1cccc(-c2ccc(C(C)(C)C(=O)NCC(C)C)cc2)c1` [Compound 19, N-isobutyl-2-(3′-methoxybiphenyl-4-yl)-2-methylpropanamide]: the EC50 came to 4.3 µM. On the same count and under the same terms, for `CC(C)CNC(=O)C(C)(C)c1ccc(-c2cccc(C#N)c2)cc1` [Compound 9, 2-(3′-cyanobiphenyl-4-yl)-N-isobutyl-2-methylpropanamide] the value was 0.2 µM; for `CC(C)CNC(=O)C(C)(C)c1ccc(-c2ccoc2)cc1` [Compound 1, 2-(4-(Furan-3-yl)phenyl)-N-isobutyl-2-methylpropanamide], 0.34 µM.
